Data published in article PMC6679423 (International Journal of Molecular Sciences, 2019).

Tests used:
[1] = molecular target: T1, FMO in human liver microsomes (Homo sapiens, UniProt P31513); test: Effects of inhibitors on vandetanib-N-oxide formation in human liver microsomes; format: in vitro ADME; conditions: inhibitor 50 μM equimolar to vandetanib (50 μM), 0.25 mg microsomal protein
T1 sequence (P31513 2-532): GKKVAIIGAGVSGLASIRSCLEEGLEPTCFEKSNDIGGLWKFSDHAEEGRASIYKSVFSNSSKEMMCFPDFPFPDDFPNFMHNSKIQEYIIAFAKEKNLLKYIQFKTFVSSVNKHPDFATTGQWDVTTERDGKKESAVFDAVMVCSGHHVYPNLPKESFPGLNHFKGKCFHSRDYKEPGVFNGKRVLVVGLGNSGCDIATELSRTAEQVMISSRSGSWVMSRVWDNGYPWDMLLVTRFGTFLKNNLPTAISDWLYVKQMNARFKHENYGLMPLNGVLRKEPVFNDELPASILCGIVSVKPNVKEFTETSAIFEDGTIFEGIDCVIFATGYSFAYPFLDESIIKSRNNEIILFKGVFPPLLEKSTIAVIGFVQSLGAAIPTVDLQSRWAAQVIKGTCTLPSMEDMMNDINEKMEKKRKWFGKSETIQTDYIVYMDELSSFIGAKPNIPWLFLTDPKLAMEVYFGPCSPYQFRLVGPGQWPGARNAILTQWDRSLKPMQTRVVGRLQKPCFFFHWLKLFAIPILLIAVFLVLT

[2] = molecular target: CYP enzymes in human liver microsomes (Homo sapiens, UniProt P08684); test: Effects of inhibitors on N-desmethylvandetanib formation in human liver microsomes; conditions: inhibitor 50 μM equimolar to vandetanib (50 μM), 0.1 nmol microsomal CYP
Method: (§1) After the incubations, 5 µL of 1 mM phenacetine (dissolved in methanol) was added as internal standard. The reaction was stopped by extraction with dichlormethane (2 × 1 mL).
(§2) Inhibition studies in human liver microsomes were essentially conducted as reported previously.

[3] = molecular target: CYP enzymes in human liver microsomes (N-desmethylvandetanib formation) (Homo sapiens, UniProt P08684); test: as above; conditions: human, pH 7.4
Method: as §1, §2

Chain of CYP enzymes in human liver microsomes (P08684 2-503): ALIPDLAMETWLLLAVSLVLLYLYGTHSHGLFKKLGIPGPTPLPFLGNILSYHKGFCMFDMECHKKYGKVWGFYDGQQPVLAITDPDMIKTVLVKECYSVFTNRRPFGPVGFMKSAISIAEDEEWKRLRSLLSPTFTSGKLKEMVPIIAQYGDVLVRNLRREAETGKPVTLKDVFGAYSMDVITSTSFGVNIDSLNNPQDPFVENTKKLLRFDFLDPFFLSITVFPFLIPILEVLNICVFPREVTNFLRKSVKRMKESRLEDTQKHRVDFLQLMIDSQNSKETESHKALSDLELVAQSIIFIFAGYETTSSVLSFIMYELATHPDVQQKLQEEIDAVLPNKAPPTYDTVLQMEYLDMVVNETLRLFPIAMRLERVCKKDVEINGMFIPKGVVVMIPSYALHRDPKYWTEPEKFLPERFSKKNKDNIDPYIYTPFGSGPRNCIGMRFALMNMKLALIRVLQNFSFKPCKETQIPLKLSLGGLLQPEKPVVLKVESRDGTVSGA
Chain of CYP enzymes in human liver microsomes (P16435 2-677, further chain): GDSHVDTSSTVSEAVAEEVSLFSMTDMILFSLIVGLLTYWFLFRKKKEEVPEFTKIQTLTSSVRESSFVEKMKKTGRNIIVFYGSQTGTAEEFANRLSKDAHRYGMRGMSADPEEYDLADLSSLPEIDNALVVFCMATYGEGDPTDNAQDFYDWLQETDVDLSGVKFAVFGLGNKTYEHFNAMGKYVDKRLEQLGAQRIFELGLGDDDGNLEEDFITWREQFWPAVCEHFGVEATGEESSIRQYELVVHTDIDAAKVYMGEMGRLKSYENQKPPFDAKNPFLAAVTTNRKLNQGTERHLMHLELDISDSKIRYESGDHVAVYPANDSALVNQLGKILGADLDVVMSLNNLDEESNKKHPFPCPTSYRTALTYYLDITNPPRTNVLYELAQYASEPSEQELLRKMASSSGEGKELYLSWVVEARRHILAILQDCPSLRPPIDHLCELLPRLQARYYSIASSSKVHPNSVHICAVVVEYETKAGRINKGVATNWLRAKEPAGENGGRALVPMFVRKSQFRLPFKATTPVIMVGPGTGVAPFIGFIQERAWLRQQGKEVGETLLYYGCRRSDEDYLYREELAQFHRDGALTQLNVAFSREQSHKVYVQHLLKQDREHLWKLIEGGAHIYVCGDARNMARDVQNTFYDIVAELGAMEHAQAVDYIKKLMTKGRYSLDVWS
Chain of CYP enzymes in human liver microsomes (N-desmethylvandetanib formation) (P08684 2-503): as the sequence (P08684 2-503) above
Chain of CYP enzymes in human liver microsomes (N-desmethylvandetanib formation) (P16435 2-677, further chain): as the sequence (P16435 2-677, further chain) above

Row | SMILES | % of Inhibition, Vandetanib-N-oxide Formation [1] | % of Inhibition, N-Desmethyvandetanib Formation [2] | inhibition at 20 min, 50 µM [3] [%] | % of Inhibition, N-Desmethyvandetanib Formation ([2]; listed as diamantane) | inhibition at 20 min, 500 µM [3] [%]
1 | CCN(CC)C(=S)S [DDTC, diethyldithiocarbamate] | no inhibition | no inhibitory effects | 0 |  | 
2 | C1C2CC3C4CC5CC(C14)C(C2)C3C5 [Diamantane, diamantane] |  | 0% |  | no inhibitory effects | 
3 | Nc1ccc(S(=O)(=O)Nc2ccnn2-c2ccccc2)cc1 [Sulfaphenazole, sulfaphenazole] |  |  | 38 ± 4 |  | < 50
